# Measured values from patent publication US20240025906A1 (NEURON23, INC., priority 2022, published 2024).
# Like-named read-outs stand apart in the source and are kept apart here.
# Key:
# TYK2 JH2 = biological target: T1, TYK2 JH2 (Homo sapiens, UniProt P29597); test: TYK2 JH2 binding assay (KINOMEscan KdELECT competitive binding); details: TYK2 JH2 domain, KINOMEscan KdELECT (Assay A); read-out: Biochemical TYK2_DiscoverX_JH2_BND_Kd
# T1 construct: purchased DiscoverX (KINOMEscan KdELECT service); host or cells: E. coli BL21-derived (T7 phage display) or HEK-293
# T1 sequence (P29597 589-875 limits assumed): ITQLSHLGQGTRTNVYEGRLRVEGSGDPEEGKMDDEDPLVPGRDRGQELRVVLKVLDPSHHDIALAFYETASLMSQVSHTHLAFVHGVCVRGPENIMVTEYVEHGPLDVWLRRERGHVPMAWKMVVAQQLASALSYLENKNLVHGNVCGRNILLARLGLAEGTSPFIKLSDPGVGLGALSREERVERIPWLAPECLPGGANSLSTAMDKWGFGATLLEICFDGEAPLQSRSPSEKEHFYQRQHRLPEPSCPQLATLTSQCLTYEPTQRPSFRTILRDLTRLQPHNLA
# How it was run: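 Test compounds were titrated in 11 three-fold steps against JH2 fragment captured on ligand-loaded magnetic beads, with 1 h incubation at room temperature and DMSO at 0.9%. Eluted kinase was quantified by qPCR, and Kd was fitted from the dose series.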
# [1] = system: JAK1/TYK2 pSTAT5 (Tyr694/699) in THP-1 cell line; test: IFNa-stimulated JAK1/TYK2 pSTAT5 (Tyr694/699) inhibition cellular assay, AlphaLISA; type: cell-based; details: Homo sapiens, THP-1 cells, AlphaLISA (Assay B), read-out: Cellular_THP1_IFNa-pSTATS_TYK2
# How it was run: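 pSTAT5 (Tyr694/699) in lysates quantified by AlphaLISA (615 nm) after 30 min IFNa stimulation (100 ng/mL stock) of THP-1 cells. The cells, 2e4 per well in HBSS, had first been exposed 1 h at 37° C. to eight 6-fold compound dilutions, 10000 down to 0.04 nM final. IC50 fitted by 4PL regression, bottom 0, Hill slope −1.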
# [2] = IFNa-stimulated pSTAT5 (Tyr694/699)
smiles,measurement,setting,value
"CNc1ncc(C#Cc2cc3sc(C)cc3cn2)c2cc(NC(=O)C3CC3)ncc12 [Example 968, N-[8-(methylamino)-5-[2-(2-methylthieno[3,2-c]pyridin-6-yl)ethynyl]-2,7-naphthyridin-3-yl]cyclopropanecarboxamide]",Kd,TYK2 JH2,≤ 0.1 µM
same,IC50,[1]; IFNa-stimulated,≤ 0.5 µM
"CNc1ncc(C#Cc2ccc(N3CCOCC3)cc2F)c2cc(NC(=O)C3CC3)ncc12 [Example 969, N-[5-[2-(2-fluoro-4-morpholino-phenyl)ethynyl]-8-(methylamino)-2,7-naphthyridin-3-yl]cyclopropanecarboxamide]",Kd,TYK2 JH2,≤ 0.1 µM
same,IC50,[1]; IFNa-stimulated,≤ 0.5 µM
"CNc1ncc(C#Cc2ccc(Oc3cn(C)c(C)n3)cc2)c2cc(NC(=O)C3CC3)ncc12 [Example 970, N-(5-((4-((1,2-dimethyl-1H-imidazol-4-yl)oxy)phenyl)ethynyl)-8-(methylamino)-2,7-naphthyridin-3-yl)cyclopropanecarboxamide]",Kd,TYK2 JH2,≤ 0.1 µM
same,IC50,[1]; IFNa-stimulated,≤ 0.5 µM
"CNc1ncc(C#Cc2ccc(Oc3ccn(C)n3)cc2)c2cc(NC(=O)C3CC3)ncc12 [Example 971, N-[8-(methylamino)-5-[2-[4-(1-methylpyrazol-3-yl)oxyphenyl]ethynyl]-2,7-naphthyridin-3-yl]cyclopropanecarboxamide]",Kd,TYK2 JH2,≤ 0.1 µM
same,IC50,[1]; IFNa-stimulated,≤ 0.5 µM
"CNc1ncc(C#Cc2ccc3c(c2)C(F)(F)C(=O)N3C)c2cc(NC(=O)C3CC3)ncc12 [Example 972, N-[5-[2-(3,3-difluoro-1-methyl-2-oxo-indolin-5-yl)ethynyl]-8-(methylamino)-2,7-naphthyridin-3-yl]cyclopropanecarboxamide]",Kd,TYK2 JH2,≤ 0.1 µM
same,IC50,[1]; IFNa-stimulated,≤ 0.5 µM
"CNc1ncc(C#Cc2cc3c(cc2F)OCCO3)c2cc(NC(=O)C3CC3)ncc12 [Example 973, N-[5-[2-(6-fluoro-2,3-dihydro-1,4-benzodioxin-7-yl)ethynyl]-8-(methylamino)-2,7-naphthyridin-3-yl]cyclopropanecarboxamide]",Kd,TYK2 JH2,≤ 0.1 µM
same,IC50,[1]; IFNa-stimulated,≤ 0.5 µM
"CNc1ncc(C#Cc2ccc3c(c2)CCC(CF)O3)c2cc(NC(=O)C3CC3)ncc12 (stereo not shown) [Example 974, N-[5-[2-[2-(fluoromethyl)chroman-6-yl]ethynyl]-8-(methylamino)-2,7-naphthyridin-3-yl]cyclopropanecarboxamide]",Kd,TYK2 JH2,≤ 0.1 µM
same,IC50,[1]; IFNa-stimulated,≤ 0.5 µM
"CNc1ncc(C#Cc2cccc3c2SCCC3=O)c2cc(NC(=O)C3CC3)ncc12 [Example 975, N-[8-(methylamino)-5-[2-(4-oxothiochroman-8-yl)ethynyl]-2,7-naphthyridin-3-yl]cyclopropanecarboxamide]",Kd,TYK2 JH2,≤ 0.1 µM
same,IC50,[1]; IFNa-stimulated,≤ 0.5 µM
"CNc1ncc(C#Cc2ncc(OC)cc2C(F)F)c2cc(NC(=O)C3CC3)ncc12 [Example 976, N-(5-((3-(difluoromethyl)-5-methoxypyridin-2-yl)ethynyl)-8-(methylamino)-2,7-naphthyridin-3-yl)cyclopropanecarboxamide]",Kd,TYK2 JH2,≤ 0.1 µM
same,IC50,[1]; IFNa-stimulated,≤ 0.5 µM
"CNc1ncc(C#Cc2ccc3c(c2)OCC(C)O3)c2cc(NC(=O)C3CC3)ncc12 (stereo not shown) [Example 977, N-[8-(methylamino)-5-[2-(2-methyl-2,3-dihydro-1,4-benzodioxin-6-yl)ethynyl]-2,7-naphthyridin-3-yl]cyclopropanecarboxamide]",Kd,TYK2 JH2,≤ 0.1 µM
same,IC50,[1]; IFNa-stimulated,≤ 0.5 µM
"CNc1ncc(C#Cc2ccc3c(c2)C=CC(C)(C)O3)c2cc(NC(=O)C3CC3)ncc12 [Example 978, N-[5-[2-(2,2-dimethylchromen-6-yl)ethynyl]-8-(methylamino)-2,7-naphthyridin-3-yl]cyclopropanecarboxamide]",Kd,TYK2 JH2,≤ 0.1 µM
same,IC50,[1]; IFNa-stimulated,≤ 0.5 µM
"CNc1ncc(C#Cc2ccnc(F)c2)c2cc(NC(=O)C3CC3)ncc12 [Example 979, N-[5-[2-(2-fluoro-4-pyridyl)ethynyl]-8-(methylamino)-2,7-naphthyridin-3-yl]cyclopropanecarboxamide]",Kd,TYK2 JH2,≤ 0.1 µM
same,IC50,[1]; IFNa-stimulated,≤ 0.5 µM
"CNc1ncc(C#Cc2ccc(F)cn2)c2cc(NC(=O)C3CC3)ncc12 [Example 980, N-[5-[2-(5-fluoro-2-pyridyl)ethynyl]-8-(methylamino)-2,7-naphthyridin-3-yl]cyclopropanecarboxamide]",Kd,TYK2 JH2,≤ 0.1 µM
same,IC50,[1]; IFNa-stimulated,≤ 0.5 µM
CNc1ncc(C#Cc2ccc3c(c2)CCC(CO)O3)c2cc(NC(=O)C3CC3)ncc12 (stereo not shown) [Example 981],Kd,TYK2 JH2,≤ 0.1 µM
same,IC50,[1]; IFNa-stimulated,≤ 0.5 µM
"CNc1ncc(C#Cc2nccc3ccsc23)c2cc(NC(=O)C3CC3)ncc12 [Example 984, N-[8-(methylamino)-5-(2-thieno[2,3-c]pyridin-7-ylethynyl)-2,7-naphthyridin-3-yl]cyclopropanecarboxamide]",Kd,TYK2 JH2,≤ 0.1 µM
same,IC50,[1]; IFNa-stimulated,≤ 0.5 µM
"CNc1ncc(C#Cc2ccncc2Cl)c2cc(NC(=O)C3CC3)ncc12 [Example 985, N-[5-[2-(3-chloro-4-pyridyl)ethynyl]-8-(methylamino)-2,7-naphthyridin-3-yl]cyclopropanecarboxamide]",Kd,TYK2 JH2,≤ 0.1 µM
same,IC50,[1]; IFNa-stimulated,≤ 0.5 µM
"CNc1ncc(C#Cc2ccc(Oc3cn(C)cn3)cc2)c2cc(NC(=O)C3CC3)ncc12 [Example 986, N-[8-(methylamino)-5-[2-[4-(1-methylimidazol-4-yl)oxyphenyl]ethynyl]-2,7-naphthyridin-3-yl]cyclopropanecarobxmaide]",Kd,TYK2 JH2,≤ 0.1 µM
same,IC50,[1]; IFNa-stimulated,≤ 0.5 µM
"CNc1ncc(C#Cc2ccc3c(c2)CCC(COC)O3)c2cc(NC(=O)C3CC3)ncc12 (stereo not shown) [Example 987, N-[5-[2-[2-(methoxymethyl)chroman-6-yl]ethynyl]-8-(methylamino)-2,7-naphthyridin-3-yl]cyclopropanecarobxamide]",Kd,TYK2 JH2,≤ 0.1 µM
same,IC50,[1]; IFNa-stimulated,≤ 0.5 µM
"CNc1ncc(C#Cc2cn(C)cn2)c2cc(NC(=O)C3CC3)ncc12 [Example 990, N-[8-(methylamino)-5-[2-(1-methylimidazol-4-yl)ethynyl]-2,7-naphthyridin-3-yl]cyclopropanecarboxamide]",Kd,TYK2 JH2,≤ 0.1 µM
same,IC50,[1]; IFNa-stimulated,≤ 0.5 µM
"CNc1ncc(C#Cc2ccncc2F)c2cc(NC(=O)C3CC3)ncc12 [Example 991, N-[5-[2-(3-fluoro-4-pyridyl)ethynyl]-8-(methylamino)-2,7-naphthyridin-3-yl]cyclopropanecarboxamide]",Kd,TYK2 JH2,≤ 0.1 µM
same,IC50,[1]; IFNa-stimulated,≤ 0.5 µM
"CNc1ncc(C#Cc2ccnc(Cl)c2)c2cc(NC(=O)C3CC3)ncc12 [Example 992, N-[5-[2-(2-chloro-4-pyridyl)ethynyl]-8-(methylamino)-2,7-naphthyridin-3-yl]cyclopropanecarboxamide]",Kd,TYK2 JH2,≤ 0.1 µM
same,IC50,[1]; IFNa-stimulated,≤ 0.5 µM
"CNc1ncc(C#Cc2ccc(OCC(F)(F)F)cn2)c2cc(NC(=O)C3CC3)ncc12 [Example 993, N-[8-(methylamino)-5-[2-[5-(2,2,2-trifluoroethoxy)-2-pyridyl]ethynyl]-2,7-naphthyridin-3-yl]cyclopropanecarboxamide]",Kd,TYK2 JH2,≤ 0.1 µM
same,IC50,[1]; IFNa-stimulated,≤ 0.5 µM
"CNc1ncc(C#Cc2ccc(Cl)cn2)c2cc(NC(=O)C3CC3)ncc12 [Example 995, N-(5-((5-chloropyridin-2-yl)ethynyl)-8-(methylamino)-2,7-naphthyridin-3-yl)cyclopropanecarboxamide]",Kd,TYK2 JH2,≤ 0.1 µM
same,IC50,[1]; [2],≤ 0.5 µM
"CNc1ncc(C#Cc2ccc3nc(C(F)F)sc3c2)c2cc(NC(=O)C3CC3)ncc12 [Example 996, N-(5-((2-(difluoromethyl)benzo[d]thiazol-6-yl)ethynyl)-8-(methylamino)-2,7-naphthyridin-3-yl)cyclopropanecarboxamide]",Kd,TYK2 JH2,≤ 0.1 µM
same,IC50,[1]; [2],≤ 0.5 µM
"CNc1ncc(C#Cc2ccc3c(c2)OCO3)c2cc(NC(=O)C3CC3)ncc12 [Example 997, N-[5-[2-(1,3-benzodioxol-5-yl)ethynyl]-8-(methylamino)-2,7-naphthyridin-3-yl]cyclopropanecarboxamide]",Kd,TYK2 JH2,≤ 0.1 µM
same,IC50,[1]; [2],≤ 0.5 µM
"CNc1ncc(C#Cc2ccc(-n3ncccc3=O)cc2)c2cc(NC(=O)C3CC3)ncc12 [Example 998, N-(8-(methylamino)-5-((4-(6-oxopyridazin-1(6H)-yl)phenyl)ethynyl)-2,7-naphthyridin-3-yl)cyclopropanecarboxamide]",Kd,TYK2 JH2,≤ 0.1 µM
same,IC50,[1]; [2],≤ 0.5 µM
"CNc1ncc(C#Cc2ccc(N3CCOCC3=O)cc2)c2cc(NC(=O)C3CC3)ncc12 [Example 999, N-(8-(methylamino)-5-((4-(3-oxomorpholino)phenyl)ethynyl)-2,7-naphthyridin-3-yl)cyclopropanecarboxamide]",Kd,TYK2 JH2,≤ 0.1 µM
same,IC50,[1]; [2],≤ 0.5 µM
"CNc1ncc(C#Cc2ccc(N3CCN(C)C3=O)cc2)c2cc(NC(=O)C3CC3)ncc12 [Example 1000, N-(5-((4-(3-methyl-2-oxoimidazolidin-1-yl)phenyl)ethynyl)-8-(methylamino)-2,7-naphthyridin-3-yl)cyclopropanecarboxamide]",Kd,TYK2 JH2,≤ 0.1 µM
same,IC50,[1]; [2],≤ 0.5 µM
"CNc1ncc(C#Cc2ccc(-n3c(=O)ccn3C)cn2)c2cc(NC(=O)C3CC3)ncc12 [Example 1001, N-(5-((5-(2-methyl-5-oxo-2,5-dihydro-1H-pyrazol-1-yl)pyridine-2-yl)ethynyl)-8-(methylamino)-2,7-nahphthyridin-3-yl)cyclopropanecarboxamide]",Kd,TYK2 JH2,≤ 0.1 µM
same,IC50,[1]; [2],≤ 0.5 µM
